Patent US12514894B2, “Traditional Chinese medicine composition for preventing and treating diabetes, traditional Chinese medicine preparation, and use thereof” (ZHEJIANG CHINESE MEDICAL UNIVERSITY, priority 2022, dated 2026)
Where two headings read alike, the source gives them in different places.

Key:
mouse sperm = details: CP 0.04 g/(kg · BW), 5 days gavage, day 35
Procedure: The dose planning and preparation methods of the positive control and samples are shown in the in vivo micronucleus assay in mouse bone marrow. Twenty-five healthy male ICR mice weighing 25.3-29.8 g were randomly divided into three sample dose groups of 2.5, 5.0 and 10.0 mL/(kg·BW), a solvent control group (purified water), and a positive control group [CP 0.04 g/(kg-BW)] by body weight, with five mice in each group. Animals in each group were given gastric gavage once a day for five consecutive days, and the gavage capacity was 20 mL/(kg·BW). At 35 days after the first administration of the test solution, the mice were sacrificed, bilateral epididymides were removed, and the epididymides were cut longitudinally with ophthalmic scissors, filtered, smeared, dried, fixed with methanol, stained with 2% (m:V) eosin, and microscopically observed.

[1] = system: mouse bone marrow polychromatic erythrocytes (PCEs); details: CP 0.04 g/(kg · BW)
Procedure: The test solutions of each dose group were prepared by diluting 2.5, 5.0, and 10.0 mL of TCM decoction to 20 mL with purified water, respectively (each equivalent to 25, 50, and 100 times the recommended daily intake of an adult). For a positive control, 0.04 g of cyclophosphamide (CP) was diluted with purified water to 20 mL for later use. Fifty ICR mice weighing 25.1-30.0 g were randomly divided into three sample dose groups of 2.5, 5.0 and 10.0 mL/(kg·BW), a solvent control group (purified water) and a positive control group [CP 0.04 g/(kg·BW)] by gender and body weight, with 10 mice in each group, half male and half female. The gavage capacity was 20 mL/(kg·BW) each time, and the femoral bone marrow was suspended in calf serum for direct smear, methanol fixation, and Giemsa staining 6 h after the second gastric gavage. […] The number of normochromatic erythrocytes (NCEs) observed was counted while 200 PCEs per animal was observed. The ratio of both (PCE/NCE) was calculated. The results are as follows (see Table 1).

[2] = system: Salmonella typhimurium TA102; experiment: Ames test, strain TA102; format: cell-based; details: Test 2
Procedure: (§1) The TCM decoction (20 mL) was sterilized at 121° C. for 20 min as a test solution. During the test, 0.1 mL of the test solution was added to each dish in the highest dose group, namely 5 μL/dish, and there was no contamination or inhibition during the pre-test. In the formal test, the test solution in the highest dose group was serially diluted 5 times with sterile purified water successively, and prepared into four test solutions with doses of 1, 0.2, 0.04, and 0.008 μL/dish, and five sample dose groups were formed. In addition, a solvent control group (sterile purified water), a blank control group (spontaneous reverse mutation group) and four positive control groups were set up. The solvents and dosages required for the preparation of positive controls sodium azide, Dexon, 2-aminofluorene and 1,8-dihydroxyanthraquinone are shown in Table 1. Sequentially, 0.1 mL each of the fresh enrichment broth of tester strain and the test solution were added into a top-layer culture medium held in a 45° C. water bath, 0.5 mL of 10% (V:V) S9 mixture was added when activated, and an equal volume of 0.2 mol/L pH7.4 phosphate buffer saline (PBS) was added without activation; after mixing well, the mixture was rapidly poured onto the bottom-layer culture medium, and the plate was rotated to uniformly distribute the top-layer culture medium on the bottom layer. […]

[3] = system: SD rats with diabetes of dampness-heat pattern; experiment: Lowering of blood glucose in rats with type 2 diabetes; format: in vivo, rat
Text: Dose Planning: Low-, medium- and high-dose groups were designed in this experiment: 10 g (crude drug)/kg, 20 g (crude drug)/kg, and 40 g (crude drug)/kg. The dose groups were given by gastric gavage for 30 consecutive days, and the control group was given an equal quantity of normal saline.
SD rats with diabetes of dampness-heat pattern were modeled with reference to the 2014 edition of the Ideas and Methods of Clinical-mimetic Research on Integrated Animal Models of Disease and Syndrome. The specific method was as follows: Sixty specific pathogen-free (SPF) grade male Sprague-Dawley (SD) rats weighing 160-180 g were selected, 10 male SD rats were assigned to a normal control group, and the rest 50 ones were fasted but not deprived of water for 16-18 h (21:00 PM to 14:00 PM the next day); STZ was prepared into a 1.0% solution with […] citric acid buffer (pH=4.2, 4° C.), and the rats were fed with high-sugar and high-fat diet on Day 3 after tail vein injection of 10 mg kg^−1 STZ; the type 2 diabetes model was replicated by continuous high-sugar and high-fat feeding for 6-8 weeks (impaired glucose tolerance was deemed as successful modeling), and the normal control group was fed with normal diet. Later, after all rats were fed with normal animal feed and normally drank water for one week, they fasted but not deprived of water for 12 h; the tails of the rats were disinfected with alcohol, and the fasting plasma glucose of the rats was measured by tail vein blood sampling. […] After the successful modeling, the rats were given normal animal feed and access to water ad libitum for one week, so as to detect the stability of the model.
After the successful modeling, 50 rats were divided into a model control group, a positive control group, a low-dose TCM decoction group, a medium-dose TCM decoction group, and a high-dose TCM decoction group. Ten rats in the blank control group were given access to ordinary animal feed and water ad libitum, and an equal volume of normal saline was administered daily by gastric gavage. Ten rats in the model control group were given access to ordinary animal feed and water ad libitum, and an equal volume of normal saline was administered daily by gastric gavage. Ten rats in the positive control group were given access to ordinary animal feed and water ad libitum, and 0.25 g/kg metformin was administered daily by gastric gavage. Ten rats in the low-dose TCM decoction group were given access to ordinary animal feed and water ad libitum, and 10 g (crude drug)/kg TCM decoction was administered daily by gastric gavage. Ten rats in the medium-dose TCM decoction group were given access to ordinary animal feed and water ad libitum, and 20 g (crude drug)/kg TCM decoction was administered daily by gastric gavage. Ten rats in the high-dose TCM decoction group were given access to ordinary animal feed and water ad libitum, and 40 g (crude drug)/kg TCM decoction was administered daily by gastric gavage. All rats were fed for a total of 30 days. Rat body weight, fasting plasma glucose, and insulin level were measured before and after SD rat modeling and after gastric gavage.

[4] = system: Salmonella typhimurium TA97a; experiment: Ames test, strain TA97a; format: cell-based; details: Test 2
Procedure: as §1

[5] = system: Salmonella typhimurium TA98; experiment: Ames test, strain TA98; format: cell-based; details: Test 2
Procedure: as §1

[6] = system: standard tester strains TA97a, TA98, TA100, and TA102; experiment: Ames test, conclusion over the four tester strains; format: cell-based, Salmonella typhimurium; details: each of four strains, regardless of addition of S9, two duplicate tests
Procedure: as §1

[7] = system: Salmonella typhimurium TA100; experiment: Ames test, strain TA100; format: cell-based; details: Test 2
Procedure: as §1

[8] = 0.25 g/kg metformin daily by gavage, 30 days
[9] = positive control and the three TCM decoction dose groups, P<0.05
[10] = positive control group (0.25 g/kg metformin), baseline
[11] = positive control group (0.25 g/kg metformin), before treatment

SMILES: O=P1(N(CCCl)CCCl)NCCCO1 (centres unmarked) [CP, cyclophosphamide]
- Abnormality rate (mouse sperm): 6.49 ± 0.74 %
- Total number of abnormal sperms (mouse sperm): 357 n
- Type of abnormal sperms: Amorphous (mouse sperm): 157
- Type of abnormal sperms: Banana-like (mouse sperm): 8
- Type of abnormal sperms: Folded (mouse sperm): 6
- Type of abnormal sperms: Hookless (mouse sperm): 169
- Type of abnormal sperms: Large (mouse sperm): 7
- Type of abnormal sperms: Two-head (mouse sperm): 3
- Type of abnormal sperms: Two-tailed (mouse sperm): 7
- Frequency of micronucleated cells ([1]; female): 15.64 ± 5.16 ‰
- Number of micronucleated PCEs ([1]; female): 88 n
- PCE/NCE ([1]; female): 1.02 ± 0.18
- Frequency of micronucleated cells ([1]; male): 17.57 ± 4.87 ‰
- Number of micronucleated PCEs ([1]; male): 78 n
- PCE/NCE ([1]; male): 1.03 ± 0.16

SMILES: CN(C)C(=N)N=C(N)N [Positive control, metformin]
- number of revertant colonies ([2]; TA102, +S9, positive control): 1085 ± 91
- number of revertant colonies ([2]; TA102, −S9, positive control): 973 ± 76
- Body weight before administration [3, 8]: 435.4 ± 25.3 g
- fasting plasma glucose: Blood glucose after administration [3, 8]: 6.65 ± 1.39 mmol/L
- insulin level After administration [3, 8]: 44.13 ± 5.42 uIU/mL
- body weight after administration compared with model control group [3, 9]: lower than that in the model control group
- fasting plasma glucose after administration compared with after modeling [3, 9]: significantly lower than that after modeling
- insulin levels after administration compared with after modeling [3, 9]: significantly lower than those after modeling
- Body weight before modeling [3, 10]: 166.3 ± 10.8 g
- fasting plasma glucose: Blood glucose before modeling [3, 10]: 6.02 ± 0.48 mmol/L
- Body weight after modeling [3, 11]: 463.5 ± 17.3 g
- fasting plasma glucose: Blood glucose after modeling [3, 11]: 20.15 ± 3.23 mmol/L
- insulin level Before administration [3, 11]: 73.45 ± 9.45 uIU/mL
- number of revertant colonies ([4]; +S9, positive control): 1061 ± 84
- number of revertant colonies ([4]; −S9, positive control): 1027 ± 98
- number of revertant colonies ([5]; TA98, +S9, positive control): 1049 ± 94
- number of revertant colonies ([5]; TA98, −S9, positive control): 1091 ± 78
- number of revertant colonies compared with the solvent control [6]: more than twice that of the corresponding solvent control
- number of revertant colonies ([7]; TA100, +S9, positive control): 1171 ± 91
- number of revertant colonies ([7]; TA100, −S9, positive control): 987 ± 117
